Reference: patent US12649907B2, “Alternate detergents for viral inactivation” (AMGEN INC., priority 2019, dated 2026)
Where “and” joins values, the source holds several entries; their conditions need not be identical. Equal entries are not always repeated.

Columns and labels:
[1] = Turbidity of detergent spiked HCCF; assay type: physicochemical; details: HCCF spiked at five times CMC, room temperature 5 days and 2-8° C. 7 days
Method: Determination of turbidity was used to measure the stability of detergent spiked samples. Increased turbidity of the sample would reflect a precipitation of the protein molecule. 100 mL of harvested cell culture fluid (HCCF) collected from cultures of each molecule were subjected to four conditions: HCCF containing no detergent (control), APO128, APO129 and Triton X-100. The detergents were spiked at five times the detergent's critical micelle concentration (CMC) values, Triton-X: […] Two sample sets were generated for each molecule; one set was kept at room temperature for 5 days. The second set was kept at 2-8° C. for 7 days. The turbidity of each sample was measured using a turbidimeter (Hach Turbidime[…] 46500-00, Loveland, CO) on days 0, 1, 2, 5, and 7.

[2] = system: PRV; assay type: cell-based, pseudorabies herpes virus
[3] = system: xMuLV; experiment: Concentration study, lowest concentration to inactivate virus; assay type: cell-based, xenotropic murine leukemia virus; details: 15° C., 30-minute incubation
[4] = system: xMuLV; experiment: Temperature-dependent study, TCID50 LRV in host cell culture fluid matrices; assay type: cell-based, xenotropic murine leukemia virus; details: for Viral inactivation in the presence of therapeutic modalities: between 30 seconds and 30 minutes, temperatures as low as 5° C. and 15° C.; for Inactivation at 30 minutes at both 5° C. and 15° C.: mAb, BiTE ®, fusion protein matrices; for Inactivation towards xMuLV at any temperature tested: in product matrices; for average LRV: process temperature of 15° C., average over modalities
[5] = system: xMuLV; assay type: cell-based, xenotropic murine leukemia virus; details: initial screen, 10× CMC or 10% w/v, 30 minutes, 15° C., 5% virus spike, PG4 cells
[6] = as indicated by the Hampton Kit; cited from earlier work
[7] = system: MMV; experiment: Concentration study, lowest concentration to inactivate virus; assay type: cell-based, mouse minute virus
[8] = system: xMuLV; experiment: Kinetic study of detergents, TCID50 LRV in host cell culture fluid matrices; assay type: cell-based, xenotropic murine leukemia virus; details: for Clearance of xMuLV within 30 minutes: 15° C.

CCCCCCCCCCCCOCCOCCOCCOCCOCCOCCOCCOCCO [Anapoe C12E8, 3,6,9,12,15,18,21,24-oxtaoxahexatriacontan-1-ol]
Precipitation of protein modalities (turbidity) [1]: none of the detergents tested caused precipitation | Cytopathic effects (CPE) at 2.5×CMC [2]: showed cytopathic effects (CPE) | Cytopathic effects (CPE) at 2.5×CMC [3]: showed cytopathic effects (CPE) | LRV BiTE ® ([4]; 5° C., 30 minutes, 5× CMC): ≥4.03 ± 0.18 | LRV fusion protein ([4]; 5° C., 30 minutes, 5× CMC): ≥4.23 ± 0.33 | LRV mAb ([4]; 5° C., 30 minutes, 5× CMC): ≥4.41 ± 0.37 | LRV BiTE ® ([4]; 15° C., 30 minutes, 5× CMC): ≥4.32 ± 0.35 | LRV fusion protein ([4]; 15° C., 30 minutes, 5× CMC): ≥4.99 ± 0.42 | LRV mAb ([4]; 15° C., 30 minutes, 5× CMC): ≥3.28 ± 0.34 | Viral inactivation in the presence of therapeutic modalities [4]: complete viral inactivation | Inactivation at 30 minutes at both 5° C. and 15° C. [4]: complete inactivation | Viral inactivation towards xMuLV (CPE) [5]: robustly inactivate the virus | CMC [6]: 0.11 mM | Cytopathic effects (CPE) at 2.5×CMC [7]: showed cytopathic effects (CPE) | LRV 30 s ([8]; BiTE ® #1, 15° C.): ≥3.32 ± 0.35 | LRV 10 min ([8]; BiTE ® #1, 15° C.): ≥3.32 ± 0.35 | LRV 30 min ([8]; BiTE ® #1, 15° C.): ≥3.32 ± 0.35 | LRV 30 s ([8]; fusion protein #1, 15° C.): ≥3.99 ± 0.42 | LRV 10 min ([8]; fusion protein #1, 15° C.): ≥3.99 ± 0.42 | LRV 30 min ([8]; fusion protein #1, 15° C.): ≥3.99 ± 0.42 | LRV 30 s ([8]; mAb #1, 15° C.): ≥3.28 ± 0.34 | LRV 10 min ([8]; mAb #1, 15° C.): ≥3.28 ± 0.34 | LRV 30 min ([8]; mAb #1, 15° C.): ≥3.28 ± 0.34

OC[C@H]1O[C@H](O[C@H]2[C@H](O)[C@@H](O)[C@H](OCCCCCC3CCCCC3)O[C@@H]2CO)[C@H](O)[C@@H](O)[C@@H]1O [CYMAL ®-5, 5-cyclohexylpentyl-β-D-maltoside]
Cytopathic effects (CPE) at 2.5×CMC [2]: showed cytopathic effects (CPE) | Cytopathic effects (CPE) at 2.5×CMC [3]: showed cytopathic effects (CPE) | LRV BiTE ® ([4]; 15° C., 30 minutes, 5× CMC): −0.06 ± 0.69 | LRV fusion protein ([4]; 15° C., 30 minutes, 5× CMC): 0.62 ± 0.48 | LRV mAb ([4]; 15° C., 30 minutes, 5× CMC): 0.62 ± 0.50 | increase in LRV at higher temperature (22° C.) ([4]; 22° C. versus 15° C.): ~1 log | LRV BiTE ® ([4]; 22° C., 30 minutes, 5× CMC): 1.19 ± 0.29 | LRV fusion protein ([4]; 22° C., 30 minutes, 5× CMC): 1.01 ± 0.45 | LRV mAb ([4]; 22° C., 30 minutes, 5× CMC): 1.94 ± 0.52 | Inactivation towards xMuLV at any temperature tested [4]: did not yield significant inactivation | average LRV [4]: 0.39 | CMC [6]: 5 mM | Cytopathic effects (CPE) at 2.5×CMC [7]: showed cytopathic effects (CPE) | Clearance of xMuLV within 30 minutes [8]: did not lead to robust clearance | LRV 30 s ([8]; BiTE ® #1, 15° C.): 0.19 ± 0.69 | LRV 10 min ([8]; BiTE ® #1, 15° C.): 0.06 ± 0.58 | LRV 30 min ([8]; BiTE ® #1, 15° C.): −0.06 ± 0.69 | LRV 30 s ([8]; fusion protein #1, 15° C.): −0.06 ± 0.69 | LRV 10 min ([8]; fusion protein #1, 15° C.): 0.31 ± 0.52 | LRV 30 min ([8]; fusion protein #1, 15° C.): 0.62 ± 0.48 | LRV 30 s ([8]; mAb #1, 15° C.): 0.25 ± 0.58 | LRV 10 min ([8]; mAb #1, 15° C.): 0.12 ± 0.58 | LRV 30 min ([8]; mAb #1, 15° C.): 0.62 ± 0.50

CCCCCCCCCCOP(=O)([O-])OCC[N+](C)(C)C [Fos-Choline ®-10, n-decylphosphocholine]
Cytopathic effects (CPE) at 2.5×CMC [2]: showed cytopathic effects (CPE) | Cytopathic effects (CPE) at 2.5×CMC [3]: showed cytopathic effects (CPE) | LRV BiTE ® ([4]; 5° C., 30 minutes, 5× CMC): 2.09 ± 0.31 | LRV fusion protein ([4]; 5° C., 30 minutes, 5× CMC): 1.76 ± 0.41 | LRV mAb ([4]; 5° C., 30 minutes, 5× CMC): 2.54 ± 0.34 | LRV BiTE ® ([4]; 15° C., 30 minutes, 5× CMC): 3.92 ± 0.67 | LRV fusion protein ([4]; 15° C., 30 minutes, 5× CMC): 3.51 ± 0.43 | LRV mAb ([4]; 15° C., 30 minutes, 5× CMC): 3.97 ± 0.90 | Inactivation towards xMuLV at any temperature tested [4]: did not yield significant inactivation | average LRV [4]: 3.8 | CMC [6]: 11 mM | Cytopathic effects (CPE) at 2.5×CMC [7]: showed cytopathic effects (CPE) | Clearance of xMuLV within 30 minutes [8]: did not lead to robust clearance | LRV 30 s ([8]; BiTE ® #1, 15° C.): 0.69 ± 0.44 | LRV 10 min ([8]; BiTE ® #1, 15° C.): 1.57 ± 0.47 | LRV 30 min ([8]; BiTE ® #1, 15° C.): 3.92 ± 0.67 | LRV 30 s ([8]; fusion protein #1, 15° C.): 0.82 ± 0.57 | LRV 10 min ([8]; fusion protein #1, 15° C.): 1.82 ± 0.51 | LRV 30 min ([8]; fusion protein #1, 15° C.): 3.51 ± 0.43 | LRV 30 s ([8]; mAb #1, 15° C.): 0.69 ± 0.31 | LRV 10 min ([8]; mAb #1, 15° C.): 1.61 ± 0.56 | LRV 30 min ([8]; mAb #1, 15° C.): 3.97 ± 0.90

CCCCCCCS[C@@H]1O[C@H](CO)[C@@H](O)[C@H](O)[C@H]1O [N-heptyl-β-D-thioglucopyranoside, Heptyl-β-D-1-thioglucopyranoside]
Cytopathic effects (CPE) at 2.5×CMC [2]: showed cytopathic effects (CPE) | Cytopathic effects (CPE) at 2.5×CMC [3]: showed cytopathic effects (CPE) | LRV BiTE ® ([4]; 5° C., 30 minutes, 5× CMC): ≥4.23 ± 0.33 | LRV fusion protein ([4]; 5° C., 30 minutes, 5× CMC): ≥4.07 ± 0.30 | LRV mAb ([4]; 5° C., 30 minutes, 5× CMC): ≥4.09 ± 0.25 | LRV BiTE ® ([4]; 15° C., 30 minutes, 5× CMC): ≥4.03 ± 0.18 | LRV fusion protein ([4]; 15° C., 30 minutes, 5× CMC): ≥4.16 ± 0.42 | LRV mAb ([4]; 15° C., 30 minutes, 5× CMC): ≥4.22 ± 0.41 | Viral inactivation in the presence of therapeutic modalities [4]: complete viral inactivation | Inactivation at 30 minutes at both 5° C. and 15° C. [4]: complete inactivation | CMC [6]: 29 mM | Cytopathic effects (CPE) at 2.5×CMC [7]: showed cytopathic effects (CPE) | LRV 30 s ([8]; BiTE ® #1, 15° C.): ≥3.03 ± 0.18 | LRV 10 min ([8]; BiTE ® #1, 15° C.): ≥3.03 ± 0.18 | LRV 30 min ([8]; BiTE ® #1, 15° C.): ≥3.03 ± 0.18 | LRV 30 s ([8]; fusion protein #1, 15° C.): ≥3.16 ± 0.42 | LRV 10 min ([8]; fusion protein #1, 15° C.): ≥3.16 ± 0.42 | LRV 30 min ([8]; fusion protein #1, 15° C.): ≥3.16 ± 0.42 | LRV 30 s ([8]; mAb #1, 15° C.): ≥3.22 ± 0.41 | LRV 10 min ([8]; mAb #1, 15° C.): ≥3.22 ± 0.41 | LRV 30 min ([8]; mAb #1, 15° C.): ≥3.22 ± 0.41

Polyoxyethylene(9)dodecyl ether [Anapoe C12E9]
Precipitation of protein modalities (turbidity) [1]: none of the detergents tested caused precipitation | Cytopathic effects (CPE) at 2.5×CMC [2]: showed cytopathic effects (CPE) | Cytopathic effects (CPE) at 2.5×CMC [3]: showed cytopathic effects (CPE) | LRV BiTE ® ([4]; 5° C., 30 minutes, 5× CMC): ≥3.84 ± 0.33 | LRV fusion protein ([4]; 5° C., 30 minutes, 5× CMC): ≥4.19 ± 0.25 | LRV mAb ([4]; 5° C., 30 minutes, 5× CMC): ≥3.91 ± 0.30 | LRV BiTE ® ([4]; 15° C., 30 minutes, 5× CMC): ≥3.91 ± 0.43 | LRV fusion protein ([4]; 15° C., 30 minutes, 5× CMC): ≥4.32 ± 0.36 | LRV mAb ([4]; 15° C., 30 minutes, 5× CMC): ≥4.23 ± 0.38 | Viral inactivation in the presence of therapeutic modalities [4]: complete viral inactivation | Inactivation at 30 minutes at both 5° C. and 15° C. [4]: complete inactivation | Viral inactivation towards xMuLV (CPE) [5]: robustly inactivate the virus | CMC [6]: 0.05 mM | Cytopathic effects (CPE) at 2.5×CMC [7]: showed cytopathic effects (CPE) | LRV 30 s ([8]; BiTE ® #1, 15° C.): 2.61 ± 0.68 | LRV 10 min ([8]; BiTE ® #1, 15° C.): ≥2.91 ± 0.43 | LRV 30 min ([8]; BiTE ® #1, 15° C.): ≥2.91 ± 0.43 | Time to complete inactivation of xMuLV ([8]; BiTE® #1): ≤ 10 min | Time to complete clearance of xMuLV ([8]; all three therapeutic modalities): ≤ 10 min | Time to complete inactivation of xMuLV ([8]; fusion protein #1): ≤ 10 min | LRV 30 s ([8]; fusion protein #1, 15° C.): 2.56 ± 0.60 | LRV 10 min ([8]; fusion protein #1, 15° C.): ≥3.32 ± 0.36 | LRV 30 min ([8]; fusion protein #1, 15° C.): ≥3.32 ± 0.36 | Time to complete inactivation of xMuLV ([8]; mAb #1): 0.5 min | LRV 30 s ([8]; mAb #1, 15° C.): ≥3.23 ± 0.00 | LRV 10 min ([8]; mAb #1, 15° C.): ≥3.23 ± 0.00 | LRV 30 min ([8]; mAb #1, 15° C.): ≥3.23 ± 0.00

polyoxyethylene octyl phenol ether [Triton X-100, reference compound]
Precipitation of protein modalities (turbidity) [1]: none of the detergents tested caused precipitation | LRV fusion protein ([4]; Triton X-100 control, 7° C., 800-sample large volume plate (1 LRV increase), Run 1 and Run 2): 5.03 ± 0.58 and 5.04 ± 0.57
